# PubChem BioAssay AID449764 (Southern Research Specialized Biocontainment Screening …, 2010)
# Tested on: Mycobacterium tuberculosis H37Rv growth inhibition, no glycerol
# Test: Confirmatory growth inhibition assay, Mycobacterium tuberculosis H37Rv, absence of glycerol (AID 449764);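 also: growth read after 7 days of incubation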
# Conditions: for IC90: measured here: IC90 growth inhibition
Structure (SMILES),IC50 [µM],IC90 [µM]
Cc1ccc(-n2c(Cl)c(Cl)nc(Cl)c2=O)cc1,16.3,24.8
O=C(/C=C/c1ccco1)Oc1ccc(C(=S)N2CCOCC2)cc1,60.3,> 100
CC(C)(C)c1ccc(C(=O)N2CCN(CCNC(=O)C(=O)NCc3ccc(Cl)cc3)CC2)cc1,24.7,46.7
COc1cc(NC(=O)c2cnc(N)s2)cc(C(=O)Nc2cccc(C(F)(F)F)c2)c1,85.9,> 100
CCCCn1cnc2c(c(-c3ccccc3)c(-c3ccccc3)n2Cc2ccco2)c1=N,94.8,> 100
Cc1cccc(N2CCN(CCCNC(=O)c3ccc(NC(=O)C4=CSCCO4)cc3)CC2C)c1 (stereo unspecified),19.7,28.7
CC(C)(O)[C@H]1O[C@H]2CC[C@@]3(C)[C@@](O)(CC[C@H]4Cc5c([nH]c6ccccc56)[C@@]43C)C2=CC1=O,48.7,> 100
O=C1c2ccccc2-c2onc3ccc(Oc4ccccc4)c1c23,10.3,14.4
CCOC(=O)c1sc(NC(=O)CN2C(=O)NC3(CC(C)CC(C)(C)C3)C2=O)cc1C (stereo unspecified),34.1,48.4
CCC(C)(C)c1ccc(OCCCC[n+]2ccc(C)cc2)c(C(C)(C)CC)c1,12,13.8
CC(=O)n1cc(/C=C2/N=C(c3ccccc3)OC2=O)c2ccccc21,43.4,> 100
CCOc1cc(C=O)cc(N=Nc2cccc([N+](=O)[O-])c2)c1O,8.41,13.5
c1ccc(Cn2c(CNc3nc4ccccc4n3CCN3CCCCC3)nc3ccccc32)cc1,44.6,72.8
Cc1ccc(C#CC[N+]2(CC#Cc3ccc(C)cc3)CCCCC2)cc1,21.4,24.8
O=c1[nH]c(CSc2cccc[n+]2[O-])nc2ccccc12,89.1,99.6
N#CC(C(=O)NCc1ccco1)c1nc2ccccc2nc1N1CCOCC1 (stereo unspecified),43,47.2
C=CC[n+]1ccn(-c2nc3ccccc3nc2[N-]S(=O)(=O)c2cccs2)c1,42.6,48.1
Cn1cc(C(=O)c2ccc(Cl)cc2)cc1-c1nc2ccccc2n1C,35.9,49.5
Cc1ccc(C2=NCCn3c2c2ccccc2[n+]3[O-])cc1,24.5,31.7
Oc1cc(NCc2cccnc2)ccc1-c1nc2ccccc2o1,31.6,61.3
COc1ccc(Cc2nc3ccc(C(=O)NCCCSC)cc3o2)cc1OC,43.1,65.2
Cc1cc(/C=N/n2cnnc2)c(C)n1-c1ccc(OCc2ccc(Cl)cc2Cl)cc1,17.6,21.5

Structure (SMILES),IC50 [µM],IC90 [µM]
CCOC(=O)CSc1snnc1-c1ccccc1,29.4,> 100
Cc1cccc2c1-c1sc(C(=O)Nc3ccccc3N3CCN(C)CC3)cc1CO2,24.1,27.6
CCCC[C@@H](CN[C@H](C)CNC)NCC1CCC(C(C)(C)C)CC1 (stereo partly specified),23.2,26.4
C/C(=N\Nc1ccc(S(=O)(=O)N2CCCCC2)cn1)c1cccc(Br)c1,39.2,> 100
COc1ccc(N2CCN(C(=O)c3cc4c(C)nc5ccccc5c4o3)CC2)cc1,81.3,> 100
CC1CCCC/C1=N\NC(=S)NCCc1ccccc1 (stereo unspecified),42.5,47.9
O=C1C2C(C(=O)N1/N=C/c1ccc([N+](=O)[O-])o1)C1C=CC2C12CC2 (stereo unspecified),32.3,52.8
Cc1nc(SCC(=O)NCC2CCCO2)c2c3c(sc2n1)CCCC3 (stereo unspecified),23,25.2
CC(=O)/C=C(\C)Nc1ccccc1O,4.45,5.87
CCOC(=O)c1nn(-c2ccc(C)cc2)c2nc(Nc3ccccc3)cc(=O)n12,12,13.6
NC(=O)c1cccc(-c2cc(Nc3ccc(OC(F)(F)F)cc3)ncn2)c1,24.5,> 25
CCSc1ncc(/C=N/Nc2ccccc2)n1C,82.6,> 100
COc1ccc(/C=N/Nc2cc(N3CCCC3)nc(N3CCCC3)n2)cc1,18.6,24
COc1cc(/C=N/NC(=O)COc2ccc(C)cc2)ccc1OC(=O)c1cccs1,25.5,30.1
C=C[C@]1(C)C[C@@H](OC(=O)CSCCN(CC)CC)[C@]2(C)C(C)CC[C@]3(CCC(=O)[C@H]32)[C@@H](C)[C@@H]1O (stereo partly specified),5.69,8.16
Nc1nnnn1/N=C/C(Br)=C/c1ccccc1,5.6,10.9
COc1cc2c(cc1NC(=O)CN1C(=O)NC3(CCc4ccccc43)C1=O)oc1ccccc12 (stereo unspecified),19.9,> 100
O=C(CCC(=O)OCc1ccc(C(=O)Oc2ccc(Cl)cc2)cc1)Nc1ccccc1,80.2,> 100
CCN(C[C@H]1N[C@@](Cc2ccccc2)(C(=O)OC)[C@H]2C(=O)N(Cc3ccccc3)C(=O)[C@@H]12)C(=O)Nc1ccc(C(F)(F)F)cc1,8.06,9.81
Cc1ccc(C(=O)OCc2nnc(-c3ccccc3)o2)s1,20.4,32.2
COc1ccc(-n2nnnc2S(=O)(=O)CC(=O)N2CCCCC2)cc1,12.5,20.9
